{
  "source": "patent US20260283924A1",
  "about": "“TOPICAL COMPOSITIONS FOR PROMOTING HAIR GROWTH” (ESTETRA SRL, priority 2023, published 2026)",
  "key": {"[1]": {"system": "human anagen VI scalp HFs (healthy female donors)", "assay": "Healthy female donor hair follicle organ culture (ex vivo model), Example 7", "type": "cell-based", "conditions": "for hair shaft production: vs vehicle", "method": "12-44 full-length frontotemporal hair follicles (HF) were obtained from four healthy human female donors >50 years old. […] Donor 2:29; Donor 3:44; Donor 4:32). After microdissection from skin as described in the art (Edelkamp et al., Methods Mol Biol, 2020, 2154:105-119; and Langan et al., Exp Dermatol, 2015 December; 24(12):903-1), HFs were placed in adequate culture medium and allowed a 24 h rest period to allow them to recover from the trauma of microdissection. Test substance (either vehicle (0.3% EtOH) or E4 at concentrations of 30 μM, 3 μM or 300 nM) was added to the medium at the end of the 24 h. Total culturing time was 5-9 days depending on the stage of the HFs in the vehicle group. The experimental design for a 6-days HF organ culture experiment is depicted in FIG. 9.\nThis model allows to assess if E4 treatment is able to prolong anagen and/or to delay catagen initiation in healthy female subjects. Clinically, hair loss is associated with a reduction of HFs in anagen or with a shortening of anagen duration. Promoting anagen might thus limit hair loss. The following parameters were investigated:\nTo determine the HF length, each HF was measured from the end of the bulb connective tissue sheath to the end of the distal outer root sheath (ORS), using a digital light microscope at 50× magnification (VHX 900 Keyence Corporation, Osaka, Japan) and the affiliated software (Edelkamp et al., Methods Mol Biol, 2020, 2154:105-119; and Langan et al., Exp Dermatol, 2015 December; 24(12):903-1). Measurements were obtained at baseline, after 24 h rest period and subsequently every 24-48 h during the entire duration of the experiment. Elongation is expressed as millimeters of growth and/or as percentage elongation from the baseline measurement.\nHair cycle staging and calculation of hair cycle score is indicative of hair cycle progression and anagen-catagen transition (Langan et al., Exp Dermatol, 2015). Hair cycle staging and hair cycle scoring was performed at the end of the culture. The hair cycle stage of each HF was determined according to several established macroscopic and microscopic parameters (Langan et al Exp Dermatol, 2015). Microscopic hair cycle staging was determined using Ki-67/TUNEL immunohistology and Masson-Fontana histochemistry. Hair cycle staging was analyzed by calculating the percentage of HFs in each hair cycle stage. Hair cycle score was determined by giving an arbitrary score to each hair cycle stage as following: anagen: 100, early catagen: 200, mid catagen: 300, late catagen: 400, dystrophic 500.\nGerminative hair matrix keratinocytes proliferate mostly during anagen. […] Apoptosis of hair matrix keratinocytes is used as an additional indicator of anagen/catagen transition.\nProliferation was assessed by quantification of the percentage of hair matrix keratinocytes in a clearly specified area (germinative hair matrix keratinocytes, below the Auber's line) that were positive for the proliferation marker Ki67, whereas apoptosis was assessed using TUNEL (TdT-mediated dUTP-biotin nick-end labelling) immunofluorescence in the same keratinocyte population (below the Auber's line) and in the precortical hair matrix keratincoytes (above the Auber's line) (Langan et al., Exp Dermatol 2015) (FIG. 11).\nAlkaline phosphatase is an indicator of DP inductivity (Yang, J Dermatol Sci, 2010 January; 57(1):2-11). Alkaline phosphatase in situ activity was measured in the DP.\nVersican, a large chondroitin sulfate proteoglycan molecule, is expressed in DP in anagen HFs and diminishes in catagen HFs and its expression correlates with hair inductive properties (Yang, J Dermatol Sci 2010). Versican intensity was analyzed in the DP.\nCD34 is a marker expressed by the progeny of HF bulge stem cells. It is expressed in the most external layer of the outer root sheet (ORS) below the isthmus (sub-bulge to suprabulbar regions) (Purba et al., BioEssays, 2014 May; 36(5):513-25). […]"}, "[2]": {"system": "terminal and intermediate hair follicles from affected and non-affected areas of FPHL donors", "assay": "Female pattern hair loss (FPHL) donor hair follicle organ culture (ex vivo model), Example 9", "type": "cell-based, human", "conditions": "3 μM; for microscopic hair cycle staging: anagen: HFs from non-affected (terminal) and affected (terminal and intermediate) scalp, preliminary, 2 donors; for hair matrix keratinocytes proliferation: terminal HFs from non-affected and affected scalp; for versican expression: terminal and intermediate HFs from non-affected scalp", "text": "Example 7 is repeated for female donor subjects suffering from pattern hair loss (FPHL), with a few modifications. In brief, terminal and intermediate hair follicles (HF) from affected (vertex) and non-affected (occipital) areas were obtained from female donors diagnosed to have FPHL (FIG. 34). After microdissection from skin as described in the art (Edelkamp et al., Methods Mol Biol, 2020, 2154:105-119; and Langan et al., Exp Dermatol, 2015 December; 24(12):903-1), HFs are placed in adequate culture medium and allowed a 24 h rest period to allow them to recover from the trauma of microdissection. Test substance (either vehicle (0.03% EtOH) or E4 at concentrations of 3 μM) was added to the medium at the end of the 24 h. Total culturing time was 3-5 days depending on the stage of the HFs in the vehicle group. The experimental design is depicted in FIG. 35. The same parameters as those described in Example 7 were investigated.\n[…] Three additional donors still have to be collected."}, "[3]": {"conditions": "300 nM and 30 μM, tendentially vs vehicle"}, "[4]": {"conditions": "300 nM, 3 μM, 30 μM, listed as Estetrol"}, "[5]": {"conditions": "3 μM, significantly vs vehicle, listed as estetrol"}, "[6]": {"conditions": "intermediate HFs from affected scalp"}, "[7]": {"conditions": "intermediate HFs from non-affected area"}, "[8]": {"conditions": "intermediate HFs from non-affected scalp"}, "[9]": {"conditions": "intermediate HFs from non-affected scalp, listed as estetrol"}, "[10]": {"conditions": "terminal HFs from non-affected scalp"}, "[11]": {"conditions": "terminal HFs from non-affected scalp, listed as estetrol"}},
  "data": [
    {"smiles": "C[C@]12CC[C@@H]3c4ccc(O)cc4CC[C@H]3[C@@H]1[C@@H](O)[C@@H](O)[C@@H]2O", "note": "[Formulation E4, 1,3,5 (10)-estratrien-3,15alpha,16alpha,17beta-tetrol]", "values": [
      {"measurement": "total number of cells in the DP stalk", "setting": "[1]; 300 nM and 3 μM", "result": "significantly reduced the total number of cells in the DP stalk"},
      {"measurement": "hair matrix keratinocytes proliferation (Ki-67)", "setting": "[1]; [3]", "result": "increased hair matrix keratinocytes proliferation"},
      {"measurement": "microscopic hair cycle staging: anagen", "setting": "[1]; [3]", "result": "prolonged anagen"},
      {"measurement": "percentage of CD34 positive cells, suprabulbar ORS", "setting": "[1]; [3]", "result": "increased the percentage of CD34 positive cells"},
      {"measurement": "microscopic hair cycle staging: anagen", "setting": "[1]; 300 nM and 30 μM, tendentially vs vehicle, listed as estetrol", "result": "maintain longer HFs in anagen"},
      {"measurement": "density of cells in the inductive dermal cup", "setting": "[1]; 300 nM, 3 μM, 30 μM", "result": "no significant impact on the density of cells in the inductive dermal cup"},
      {"measurement": "hair matrix keratinocytes apoptosis (TUNEL)", "setting": "[1]; 300 nM, 3 μM, 30 μM", "result": "without affecting hair matrix keratinocytes apoptosis"},
      {"measurement": "percentage of K15 positive cells, suprabulbar ORS", "setting": "[1]; 300 nM, 3 μM, 30 μM", "result": "did not have any effect on the percentage of K15 positive cells"},
      {"measurement": "hair matrix keratinocytes apoptosis (TUNEL)", "setting": "[1]; [4]", "result": "apoptosis was not affected"},
      {"measurement": "hair shaft production", "setting": "[1]; 300 nM, 3 μM, 30 μM", "result": "did not modify hair shaft production"},
      {"measurement": "hair shaft production", "setting": "[1]; [4]", "result": "does not impact hair shaft production"},
      {"measurement": "proliferation of K15 positive cells (Ki-67), suprabulbar ORS", "setting": "[1]; 300 nM, significantly vs vehicle", "result": "decreased their proliferation"},
      {"measurement": "percentage of K15 positive cells, bulge basal layer", "setting": "[1]; 3 μM", "result": "significantly decreased the percentage of K15 positive cells"},
      {"measurement": "proliferation of K15 positive cells (Ki-67), bulge basal layer", "setting": "[1]; 3 μM and 300 nM, tendentially vs vehicle", "result": "increased their proliferation"},
      {"measurement": "hair matrix keratinocytes proliferation (Ki-67)", "setting": "[1]; 3 μM, significantly vs vehicle", "result": "increased hair matrix keratinocytes proliferation"},
      {"measurement": "microscopic hair cycle staging: anagen", "setting": "[1]; 3 μM, significantly vs vehicle", "result": "prolonged anagen"},
      {"measurement": "percentage of CD34 positive cells, suprabulbar ORS", "setting": "[1]; 3 μM, significantly vs vehicle", "result": "increased the percentage of CD34 positive cells"},
      {"measurement": "hair matrix keratinocytes proliferation (Ki-67)", "setting": "[1]; [5]", "result": "increases hair matrix keratinocytes proliferation"},
      {"measurement": "microscopic hair cycle staging: anagen", "setting": "[1]; [5]", "result": "maintain longer HFs in anagen"},
      {"measurement": "proliferation of K15 positive cells (Ki-67), suprabulbar ORS", "setting": "[1]; 3 μM, tendentially vs vehicle", "result": "decreased their proliferation"},
      {"measurement": "proliferation of K15 positive cells (Ki-67), bulge basal layer", "setting": "[1]; 30 μM, significantly vs vehicle", "result": "increased their proliferation"},
      {"measurement": "density of cells in the DP stalk", "setting": "[1]; all concentrations", "result": "tendentially decreased the density of cells"},
      {"measurement": "alkaline phosphatase activity in DP cells", "setting": "[1]; all tested concentrations", "result": "tendentially increased"},
      {"measurement": "density of cells in the DP", "setting": "[1]; all tested concentrations", "result": "did not strikingly affect the density of cells in the DP"},
      {"measurement": "versican expression in DP cells", "setting": "[1]; all tested concentrations", "result": "tendentially increased versican expression"},
      {"measurement": "hair matrix keratinocytes apoptosis", "setting": "[2]", "result": "without affecting hair matrix keratinocytes apoptosis"},
      {"measurement": "dermal papilla inductivity (versican expression and alkaline phosphatase activity)", "setting": "[2]; HFs from affected area", "result": "not strikingly altered"},
      {"measurement": "microscopic hair cycle staging: anagen", "setting": "[2]", "result": "prolonged anagen"},
      {"measurement": "microscopic hair cycle staging: anagen", "setting": "[2]; listed as estetrol", "result": "prolongs anagen"},
      {"measurement": "density of dermal papilla cells", "setting": "[2]; [6]", "result": "tendentially increased the density"},
      {"measurement": "total number of dermal papilla cells", "setting": "[2]; [6]", "result": "tendentially increased"},
      {"measurement": "density of dermal papilla cells", "setting": "[2]; [7]", "result": "tendentially decreases the density"},
      {"measurement": "total number of cells in the dermal cup", "setting": "[2]; [7]", "result": "increases"},
      {"measurement": "K15 expression, bulge basal layer", "setting": "[2]; [8]", "result": "tendentially increased K15 expression"},
      {"measurement": "area size of the dermal papilla", "setting": "[2]; [8]", "result": "tendentially increased"},
      {"measurement": "density of dermal papilla stalk cells", "setting": "[2]; [8]", "result": "tendentially decreased the density of dermal papilla stalk cells"},
      {"measurement": "total number of cells of the dermal papilla", "setting": "[2]; [8]", "result": "tendentially increased the total number of cells"},
      {"measurement": "area size of the dermal papilla", "setting": "[2]; [9]", "result": "increases"},
      {"measurement": "density of dermal papilla stalk cells", "setting": "[2]; [9]", "result": "tendentially decreased"},
      {"measurement": "total number of cells of the dermal papilla", "setting": "[2]; [9]", "result": "increases the total DP cell number"},
      {"measurement": "proliferation of K15+ cells, bulge basal layer", "setting": "[2]; terminal HFs from affected scalp", "result": "increased proliferation of K15+ cells"},
      {"measurement": "hair matrix keratinocytes proliferation", "setting": "[2]", "result": "tendentially increased hair matrix keratinocytes proliferation"},
      {"measurement": "hair matrix keratinocytes proliferation", "setting": "[2]; listed as estetrol", "result": "tendentially increases hair matrix keratinocytes proliferation"},
      {"measurement": "proliferation of K15+ cells, suprabulbar outer root sheath", "setting": "[2]; terminal HFs from non-affected and intermediate HFs from affected scalp", "result": "increased proliferation of K15+ cells"},
      {"measurement": "density of dermal papilla stalk cells", "setting": "[2]; terminal HFs from non-affected area", "result": "without influencing their density"},
      {"measurement": "K15 expression, suprabulbar outer root sheath", "setting": "[2]; [10]", "result": "tendentially increased K15 expression"},
      {"measurement": "area size of the dermal papilla stalk", "setting": "[2]; [10]", "result": "significantly decreased"},
      {"measurement": "number of K15 positive cells, suprabulbar outer root sheath", "setting": "[2]; [10]", "result": "tendentially increased"},
      {"measurement": "total number of cells in the dermal cup", "setting": "[2]; [10]", "result": "significantly reduced the total number of cells in the dermal cup"},
      {"measurement": "total number of cells of the dermal papilla stalk", "setting": "[2]; [10]", "result": "significantly decreased the total number of cells"},
      {"measurement": "area size of the dermal papilla stalk", "setting": "[2]; [11]", "result": "significantly decreases"},
      {"measurement": "total number of cells in the dermal cup", "setting": "[2]; [11]", "result": "significantly reduces"},
      {"measurement": "total number of cells of the dermal papilla stalk", "setting": "[2]; [11]", "result": "significantly decreases the total number"},
      {"measurement": "alkaline phosphatase activity (dermal papilla inductivity)", "setting": "[2]; terminal and intermediate HFs from non-affected area", "result": "tendential increase"},
      {"measurement": "versican expression", "setting": "[2]", "result": "tendentially increased versican expression"},
      {"measurement": "versican expression", "setting": "[2]; listed as estetrol", "result": "tendentially increases versican expression"}
    ]}
  ]
}
